What all share (type): physicochemical
The nature of data set [1]: Stability of formulations at 40° C. at various pH values (impurities by UPLC). Here is the method: (§1) The purity of a composition was analyzed by UPLC on a 2.1×100 mm C18 column with 1.7 μm packing. The analytical method was a 7 minute gradient at 30° C. and a flowrate of 0.61 mL/min consisting of acetonitrile, water, and trifluoracetic acid. Absorption was measured at 210 nm and 440 nm.
To determine the stability of the formulations described herein, the amount of impurities was measured. A formulation was added to a 10 mL amber vial and stored at 40° C. in a constant temperature chamber. At the desired time point(s), the formulation was analyzed by UPLC and the pH was measured. No change in physical appearance was observed.

A short description of data set [2]: Combination of exemplary composition and radiographic contrast agent, UPLC. The conditions noted are these: for Increase in the amount of impurities of Compound of Formula (I), HPLC chromatograms: initial and 24-hour timepoints. As for the experimental part: as §1
Equal volumes of a formulation from Example 1 and radiographic contrast agent (Omnipaque or Isovue), as received from the manufacturer, were drawn into separate syringes. The two syringes were connected to an indeflator by a three-way joint/stopcock. The indeflator was evacuated and the mixtures from both syringes were transferred into the indeflator. The indeflator was then inverted six times to ensure complete mixing of the mixtures. The resulting mixture was a yellow/orange translucent mixture, stored in an amber scintillation vial at room temperature, and analyzed by UPLC upon storage and after 24 hours.

Data set [3] in a line: Combination of exemplary composition and paclitaxel injection solution, UPLC. The conditions noted are these: for Compound of Formula (I) (HPLC area-%) / Total impurities (HPLC area-%): equal volumes of formulation and paclitaxel injection solution (6 mg/mL); for Compound of Formula (I) (HPLC area-%) / Total impurities (HPLC area-%) / Stability after being combined in the same composition: room temperature; for Stability after being combined in the same composition: seven hours after combining Compound of Formula (I) formulation and paclitaxel. Here is the method: as §1
Equal volumes of a formulation from Example 1 and paclitaxel injection solution (6 mg/mL; used as received from manufacturer) were combined in an amber scintillation vial and stored at room temperature. The resulting mixture was a clear yellow solution. An aliquot was obtained, diluted 1:10 with 0.1% aqueous TFA and analyzed by UPLC as described herein. Another aliquot was obtained, 7 hours after preparation of the mixture, and similarly diluted and analyzed.

The mark [4] stands for this setting: equal volumes of formulation and Isovue, room temperature, t = 0 hours.
Where [5] appears, read: equal volumes of formulation and Isovue, room temperature, t = 24 hours.
Setting [6] is: equal volumes of formulation and Omnipaque, room temperature, t = 0 hours.
[7] abbreviates: equal volumes of formulation and Omnipaque, room temperature, t = 24 hours.

On to `NCCOCCOCCNc1ccc2c3c(cccc13)C(=O)N(CCOCCOCCN1C(=O)c3cccc4c(NCCOCCOCCN)ccc(c34)C1=O)C2=O` [Compound of Formula (I), 2,2′-((ethane-1,2-diylbis(oxy))bis(ethane-2,1-diyl))bis(6-((2-(2-(2-aminoethoxy)ethoxy)ethyl)amino)-1H-benzo[de]isoquinoline-1,3(2H)-dione)], for which, in data set [1] (composition at a pH ranging from 5 to 7), the “Increase in impurity concentration” value is recorded as “minimal”. For the same molecule, in data set [1] (compositions having a pH of less than 5 or greater than 7), the Degradation in compositions entry was “degrade appreciably”. For the same molecule, the “Stability when combined with a radiographic contrast agent” value in data set [2] (after 24 hours, room temperature) is listed as “stable”. Besides, the “Compound of Formula (I) (HPLC area-%)” value in data set [2] (setting [4]) amounted to 98.98 HPLC area-%; in data set [2] (setting [5]), 98.97 HPLC area-%; in data set [2] (setting [6]), 98.98 HPLC area-%; in data set [2] (setting [7]), 98.95 HPLC area-%; in data set [3] (0 hours), 98.9 HPLC area-%; in data set [3] (1 hour), 98.9 HPLC area-%. The “Compound of Formula (I) (HPLC area-%)” value in data set [3] (4 hours) and in data set [3] (7 hours) was 98.9 HPLC area-% in each case. Further, the “Total impurities (HPLC area-%)” value in data set [2] (setting [4]) turned out to be 1.02 HPLC area-%; in data set [2] (setting [5]), 1.03 HPLC area-%; in data set [2] (setting [6]) it was 1.02 HPLC area-%; in data set [2] (setting [7]) it was 1.05 HPLC area-%; in data set [3] (0 hours), 1.1 HPLC area-%; in data set [3] (1 hour), 1.1 HPLC area-%. The “Total impurities (HPLC area-%)” value in data set [3] (4 hours) and in data set [3] (7 hours) was 1.1 HPLC area-% each time. For the same molecule, the “Increase in the amount of impurities of Compound of Formula (I), HPLC chromatograms” value in data set [2] (mixture with Isovue, FIG. 5) was “no increase”; in data set [2] (mixture with Omnipaque, FIG. 6), “no increase”; in data set [3] (mixture with paclitaxel, 1- and 7-hour time points, FIG. 7), “no increase”. In addition, the “Stability after being combined in the same composition” value in data set [3] was “stable”.
For the molecule `CC(=O)O[C@H]1C(=O)[C@@]2(C)[C@H]([C@H](OC(=O)c3ccccc3)[C@]3(O)C[C@H](OC(=O)[C@H](O)[C@@H](NC(=O)c4ccccc4)c4ccccc4)C(C)=C1C3(C)C)[C@]1(OC(C)=O)CO[C@@H]1C[C@@H]2O` [paclitaxel, reference compound], in data set [3] (mixture of Compound of Formula (I) and paclitaxel, 1- and 7-hour time points, FIG. 8), the “Increase in the amount of impurities of paclitaxel, HPLC chromatograms” value is “no increase”. In addition, the “Stability after being combined in the same composition” value in data set [3] is on record as “stable”.

Values taken from patent US20220409608A1, “DIMERIC NAPHTHALIMIDE FORMULATIONS” (ALUCENT BIOMEDICAL, INC., priority 2019, published 2022).
